According to patent US20260174875A1 (Novo Nordisk A/S, priority 2023, published 2026):

Assay: Chemical stability assessment in formulation (UPLC-UV-MS purity loss at 37° C.)
Type: physicochemical
Settings: 8 mM phosphate buffer pH 7.4, 1 mg/mL, 2 weeks
Procedure: The assay was performed to investigate the extend of chemical degradation in vitro over time upon incubation at 37° C. for a period of 2 weeks.
Peptide solutions were prepared by dissolving freeze-dried powder in 8 mM phosphate buffer pH 7.4 to a target of 1 mg/mL. The pH of peptide solutions was adjusted to 7.4 with 0.02 M HCl or 0.02 M NaOH. Samples were filled in Agilent HPLC vials with fixed insert. Vials were capped to prevent evaporation. The HPLC vials were incubated at 37° C. and samples were withdrawn at different time points over a period of 2 weeks, flash frozen at −80° C., and stored at −20° C. until analysis.
A flow-rate of 100 μL/min was delivered with a Binary solvent manager pump having 0.1% formic acid in water as solvent A and 0.1% formic acid in acetonitrile as solvent B. Gradient elution was carried out using 20% B from 0 to 2 min followed by 20 to 50% B from 2 to 20 min in a total run time of 30 min.

- Purity loss per week at 37° C.: 1.0%
SMILES: CC[C@H](C)[C@H](NC(=O)[C@H](CCC(=O)O)NC(=O)[C@H](CCC(=O)O)NC(=O)[C@H](CC(C)C)NC(=O)[C@H](CC(C)C)NC(=O)[C@H](CCCCNC(=O)COCCOCCNC(=O)COCCOCCNC(=O)CC[C@H](NC(=O)CCCCCCCCCCCCCCCCCCC(=O)O)C(=O)O)NC(=O)[C@H](CO)NC(=O)[C@H](Cc1ccc(O)cc1)NC(=O)[C@H](CC(=O)O)NC(=O)[C@H](CO)NC(=O)[C@@H](NC(=O)[C@H](Cc1ccccc1)NC(=O)[C@@H](NC(=O)CNC(=O)[C@H](CCC(=O)O)NC(=O)C(C)(C)NC(=O)[C@@H](N)Cc1ccc(O)cc1)[C@@H](C)O)[C@@H](C)O)C(=O)N[C@@H](C)C(=O)N[C@@H](C)C(=O)N[C@@H](CCCNC(=N)N)C(=O)N[C@@H](CCC(=O)O)C(=O)N[C@@H](Cc1ccccc1)C(=O)N[C@H](C(=O)N[C@@H](CCC(=O)O)C(=O)N[C@@H](Cc1c[nH]c2ccccc12)C(=O)N[C@@H](CC(C)C)C(=O)N[C@@H](CC(C)C)C(=O)N[C@@H](C)C(=O)NCC(=O)NCC(=O)N1CCC[C@H]1C(=O)N[C@@H](CO)C(=O)N[C@@H](CO)C(=O)NCC(=O)N[C@@H](C)C(=O)NCC(=O)N[C@@H](CCC(N)=O)C(=O)N[C@@H](C)C(=O)N1CCC[C@H]1C(=O)NCC(=O)N[C@@H](CCC(=O)O)C(=O)N[C@@H](C)C(=O)N1CCC[C@H]1C(=O)NCC(=O)N[C@@H](C)C(=O)N[C@@H](CO)C(=O)N[C@@H](CCC(=O)O)C(=O)N[C@@H](CC(C)C)C(=O)N[C@@H](CO)C(=O)N[C@H](C(=O)N[C@@H](C)C(=O)N[C@@H](C)C(=O)N[C@@H](CC(C)C)C(=O)NCC(=O)N[C@@H](CCCNC(=N)N)C(=O)N[C@@H](CC(C)C)C(=O)N[C@@H](CO)C(=O)N[C@@H](C)C(=O)N[C@@H](CCC(=O)O)C(=O)N[C@@H](CC(C)C)C(=O)N[C@@H](Cc1c[nH]cn1)C(=O)N[C@@H](CCC(N)=O)C(=O)N[C@@H](CC(C)C)C(=O)N[C@@H](C)C(=O)N[C@H](C(=O)N[C@@H](CC(C)C)C(=O)N1CCC[C@H]1C(=O)N[C@@H](CCCNC(=N)N)C(=O)N[C@H](C(=O)N[C@@H](CCC(=O)O)C(=O)N[C@H](C(=O)NCC(=O)N[C@@H](CO)C(=O)NCC(=O)N[C@@H](CO)C(=O)N1CCC[C@H]1C(N)=O)[C@@H](C)O)[C@@H](C)O)[C@@H](C)O)[C@@H](C)O)[C@@H](C)CC [Compound 171]
